Measured values taken from PubChem BioAssay (NCI).
Where “and” joins values, the source holds several entries; their conditions need not be identical. Equal values may be shown once.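 Values below derive from 48-hour exposures of cells grown in 96-well plates, with endpoints linearly interpolated between the two concentrations bracketing the appropriate inhibition level. GI50 is the concentration that inhibits growth by half. The concentration for full growth arrest is given as TGI.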

Assays:
Test in all cases: NCI-60 cell line screen, 48 h
SF-539 CNS = test system: SF-539 CNS
KM12 colon = test system: KM12 colon
MCF7 breast = test system: MCF7 breast
HT29 colon = test system: HT29 colon
SK-MEL-2 melanoma = test system: SK-MEL-2 melanoma
BT-549 breast = test system: BT-549 breast
SK-MEL-5 melanoma = test system: SK-MEL-5 melanoma
MALME-3M melanoma = test system: MALME-3M melanoma
M14 melanoma = test system: M14 melanoma
MOLT-4 leukemia = test system: MOLT-4 leukemia
K-562 leukemia = test system: K-562 leukemia
NCI-H460 lung = test system: NCI-H460 lung
SW-620 colon = test system: SW-620 colon
LOX IMVI melanoma = test system: LOX IMVI melanoma
U251 CNS = test system: U251 CNS
SK-OV-3 ovarian = test system: SK-OV-3 ovarian
NCI-H23 lung = test system: NCI-H23 lung
A549 NSCLC = test system: A549 NSCLC
SNB-19 CNS = test system: SNB-19 CNS

Row | Compound | TGI (SF-539 CNS) | TGI (KM12 colon) | TGI (MCF7 breast) | TGI (HT29 colon) [µM] | TGI (SK-MEL-2 melanoma) | TGI (BT-549 breast) | TGI (SK-MEL-5 melanoma) | TGI (MALME-3M melanoma) | TGI (M14 melanoma) | TGI (MOLT-4 leukemia) | TGI (K-562 leukemia) [µM] | TGI (NCI-H460 lung) | TGI (SW-620 colon) | TGI (LOX IMVI melanoma) | TGI (U251 CNS) [µM] | TGI (SK-OV-3 ovarian) | TGI (NCI-H23 lung) | TGI (A549 NSCLC) | TGI (SNB-19 CNS) | GI50 (KM12 colon)
1 | CC(O)/C=C/C1OC(=O)CC1Nc1ccc(C=O)cc1 (configuration not stated) | > 100 µM | > 100 µM | > 100 µM | > 100 | 74.7 µM | > 100 µM | 33.5 µM | > 100 µM | 41.9 µM | 77.5 µM | > 100 | > 100 µM | > 100 µM | > 100 µM | > 100 | > 100 µM | > 100 µM | > 100 µM | > 100 µM | –
2 | O=C(/C=C/c1ccc(O)c(O)c1)O[C@H]1CCCC[C@@H]1OC(=O)/C=C/c1ccc(O)c(O)c1 | > 100 µM | 73.3 µM | 70.2 µM | – | 84.3 µM | 63.6 µM | 21.4 µM | 32.6 µM | 77.9 µM | > 100 µM | > 100 | > 100 µM | 19.5 µM | 17 µM | > 100 | 41.3 µM | 33.7 µM | > 100 µM | 73.8 µM | –
3 | N#CCc1nc(-c2cc3ccc(O)cc3oc2=O)cs1 | > 100 µM | > 100 µM | > 100 µM | > 100 | 66 µM | > 100 µM | > 100 µM | > 100 µM | > 100 µM | > 100 µM | > 100 | > 100 µM | > 100 µM | > 100 µM | > 100 | > 100 µM | – | > 100 µM | > 100 µM | –
4 | CCOC(=O)/C=C(/C(=O)OCC)n1cc(C)c(=O)[nH]c1=O | 27.3 µM | 29 µM | 12.7 µM | 15.1 | 18.4 µM | 22.8 µM | 21.1 µM | 4.48 µM | 3.91 µM | 6.51 µM | 4.73 | 29.4 µM | 4.84 µM | 5.94 µM | 18.8 | 32.4 µM | 18.3 µM | 31.5 µM | 32.2 µM | –
5 | Oc1c(O)c(Cc2ccccc2)c(Cc2ccccc2)c(Cc2ccccc2)c1Cc1ccccc1 | > 10 µM | > 10 µM | > 10 µM | > 10 | > 10 µM | > 10 µM | > 10 µM | > 10 µM | > 10 µM | > 10 µM | > 10 | > 10 µM | > 10 µM | > 10 µM | > 10 | > 10 µM | > 10 µM | > 10 µM | > 10 µM | –
6 | O=C(Cc1ccccc1)Nc1nc2ccc(Cl)cc2c2nc(-c3ccco3)nn12 | > 60.5 µM | > 100 µM | > 100 µM | > 100 | > 100 µM | > 100 µM | > 100 µM | > 100 µM | > 100 µM | > 100 µM | > 100 | > 100 µM | > 100 µM | > 100 µM | > 100 | > 100 µM | > 100 µM | > 100 µM | > 55.6 µM | –
7 | O=c1[nH]nc(Cc2ccc(Cl)cc2)n1CCO | > 100 µM | > 100 µM | > 100 µM | > 100 | > 100 µM | > 100 µM | > 100 µM | > 100 µM | > 100 µM | > 100 µM | > 100 | > 100 µM | > 100 µM | > 100 µM | > 100 | > 100 µM | > 100 µM | > 100 µM | > 100 µM | –
8 | O=C1CCCc2cc3c(cc21)CC1(C3)Cc2cc3c(cc2C1)C(=O)CCC3 | 5.85 µM | 7.85 µM | 15.3 µM | 7.41 | 15.6 µM | 90.2 µM | 7.09 µM | > 62.6 µM | 11.8 µM | > 43.1 µM | > 42.2 | > 44.2 µM | > 100 µM | > 65.3 µM | 36.5 | > 44.7 µM | 31.7 µM | 53.8 µM | > 100 µM | –
9 | CN(C)c1ccc(/C=C2\C[C@H]3[C@@H]4CC=C5C[C@@H](O)CC[C@]5(C)[C@H]4CC[C@]3(C)[C@H]2O)cc1 | 22.1 µM | > 100 µM | 34.4 µM | 27.5 | 42.9 µM | 43.3 µM | 34.3 µM | 38.4 µM | 41.3 µM | > 100 µM | > 100 | 28.9 µM | 67.3 µM | 27.1 µM | 22.6 | 88.1 µM | 35.6 µM | 38.6 µM | 37.1 µM | –
10 | Clc1ccc(C2=Cc3nc2c(-c2ccccc2)c2ccc([nH]2)c(-c2ccccc2)c2nc(c(-c4ccccc4)c4ccc([nH]4)c3-c3ccccc3)C=C2)cc1 | > 62.5 µM | > 62.5 µM | > 62.5 µM | > 62.5 | > 62.5 µM | > 62.5 µM | > 62.5 µM | > 62.5 µM | > 62.5 µM | > 62.5 µM | > 62.5 | > 62.5 µM | > 62.5 µM | > 62.5 µM | > 62.5 | > 62.5 µM | > 62.5 µM | > 62.5 µM | > 62.5 µM | –
11 | CCOC(=O)/C=C/C1=C(Br)[C@@]2(C)CC[C@@H]3c4ccc(O)cc4CC[C@H]3[C@@H]2C1 | 30.7 µM | 29.7 µM | 26.7 µM | 27.8 | 28.1 µM | 27.3 µM | 26.8 µM | 24.3 µM | 23.9 µM | 43.2 µM | 24.9 | 28.4 µM | 37.3 µM | 19.6 µM | 30.3 | 28.7 µM | 26.6 µM | 30.5 µM | 30.2 µM | –
12 | CC(=O)OC1OC(C2c3cccc(O)c3C(=O)c3c(O)cc(CO)cc32)C(O)C(O)C1O (configuration not stated) | 4.22 µM and 4.73 µM | 4.54 µM and 4.23 µM | 35.3 µM and > 100 µM | > 100 | 6.11 µM and 5.71 µM | 22.6 µM and 47.1 µM | 4.26 µM and 4.09 µM | 19.5 µM and 25.3 µM | 24.4 µM and 24.8 µM | 52.2 µM and 66.5 µM | > 100 | 13.4 µM and 12.4 µM | 10.8 µM and 19.3 µM | 9.75 µM and 9.49 µM | 22.6 | 18.3 µM and 90.8 µM | 11.3 µM and 13 µM | 21.2 µM and 29.5 µM | 6.7 µM and 6.51 µM | 0.811 µM and 0.17 µM
